Test results published in PubChem BioAssay AID330 (DTP/NCI, 2004).
Values joined by “and” are separate entries in the source; they are usually repeats but may differ in a detail not shown here. Identical values can stand only once. Inconclusive results and toxic doses are left out.

System: P388 leukemia ip, CD2F1 mice, survival T/C
Test: NCI In Vivo Anticancer Drug Screen. Data for tumor model P388 Leukemia (intraperitoneal) in CD2F1 (CDF1) mice
Details: endpoint: median survival time, higher = longer survival
In short: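 Mice carrying the transplanted tumor received test compound or vehicle. Survival was recorded in each group, and the value is the treated-group measurement divided by that of the vehicle-treated control group.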

[1] = dose: 100.0 mg/kg/injection, schedule: Q04DX003 (ip), vehicle: Klucel (hydroxypropylcellulose) (HPC)
[2] = dose: 200.0 mg/kg/injection, schedule: Q04DX003 (ip), vehicle: Klucel (hydroxypropylcellulose) (HPC)
[3] = dose: 50.0 mg/kg/injection, schedule: Q01DX009 (ip), vehicle: saline with Tween-80
[4] = dose: 50.0 mg/kg/injection, schedule: Q01DX009 (ip), vehicle: Klucel (hydroxypropylcellulose) (HPC)
[5] = dose: 100.0 mg/kg/injection, schedule: Q01DX009 (ip), vehicle: Klucel (hydroxypropylcellulose) (HPC)
[6] = dose: 200.0 mg/kg/injection, schedule: Q01DX009 (ip), vehicle: Klucel (hydroxypropylcellulose) (HPC)
[7] = dose: 50.0 mg/kg/injection, schedule: Q01DX005 (ip), vehicle: Klucel (hydroxypropylcellulose) (HPC)
[8] = dose: 100.0 mg/kg/injection, schedule: Q01DX005 (ip), vehicle: Klucel (hydroxypropylcellulose) (HPC)
[9] = dose: 200.0 mg/kg/injection, schedule: Q01DX005 (ip), vehicle: Klucel (hydroxypropylcellulose) (HPC)
[10] = dose: 100.0 mg/kg/injection, schedule: Q01DX009 (ip), vehicle: saline
[11] = dose: 200.0 mg/kg/injection, schedule: Q01DX009 (ip), vehicle: saline

SMILES: CONC(C)=O
- T/C (dose: 60.0 mg/kg/injection, schedule: Q01DX005 (ip), vehicle: saline): 98 % of control
- T/C (dose: 120.0 mg/kg/injection, schedule: Q01DX005 (ip), vehicle: saline): 100 % of control
- T/C (dose: 240.0 mg/kg/injection, schedule: Q01DX005 (ip), vehicle: saline): 100 % of control

SMILES: C=C(C(=O)O)S(=O)(=O)O
- T/C (dose: 7.5 mg/kg/injection, schedule: Q01DX009 (ip), vehicle: saline with Tween-80): 102 % of control
- T/C (dose: 15.0 mg/kg/injection, schedule: Q01DX009 (ip), vehicle: saline with Tween-80): 110 % of control
- T/C (dose: 30.0 mg/kg/injection, schedule: Q01DX009 (ip), vehicle: saline with Tween-80): 114 % of control

SMILES: O=C1CC(c2ccccc2)C(c2ccccc2)C(=O)O1 (stereo not given)
- T/C [1]: 87 % of control
- T/C [2]: 93 % of control
- T/C (dose: 400.0 mg/kg/injection, schedule: Q04DX003 (ip), vehicle: Klucel (hydroxypropylcellulose) (HPC)): 91 % of control

SMILES: CCC(=[Se])N(CC)CC
- T/C (dose: 0.39 mg/kg/injection, schedule: Q01DX009 (ip), vehicle: Klucel (hydroxypropylcellulose) (HPC)): 98 % of control
- T/C (dose: 0.78 mg/kg/injection, schedule: Q01DX009 (ip), vehicle: Klucel (hydroxypropylcellulose) (HPC)): 102 % of control
- T/C (dose: 1.56 mg/kg/injection, schedule: Q01DX009 (ip), vehicle: Klucel (hydroxypropylcellulose) (HPC)): 99 % of control
- T/C (dose: 6.25 mg/kg/injection, schedule: Q01DX009 (ip), vehicle: Klucel (hydroxypropylcellulose) (HPC)): 100 % of control

SMILES: Cc1cc2nc(N)[nH]c2cc1C
- T/C (dose: 6.25 mg/kg/injection, schedule: Q01DX009 (ip), vehicle: saline with Tween-80): 102 % of control
- T/C (dose: 12.5 mg/kg/injection, schedule: Q01DX009 (ip), vehicle: saline with Tween-80): 103 % of control
- T/C (dose: 25.0 mg/kg/injection, schedule: Q01DX009 (ip), vehicle: saline with Tween-80): 105 % of control
- T/C [3]: 103 % of control

SMILES: Cc1c2oc3c(C)c([N+](=O)[O-])cc(C(=O)NC4C(=O)NC(C(C)C)C(=O)N5CCCC5C(=O)N(C)CC(=O)N(C)C(C(C)C)C(=O)OC4C)c3nc-2c(C(=O)NC2C(=O)NC(C(C)C)C(=O)N3CCCC3C(=O)N(C)CC(=O)N(C)C(C(C)C)C(=O)OC2C)c(N)c1=O (stereo not given)
- T/C (dose: 0.01 mg/kg/injection, schedule: Q01DX009 (ip), vehicle: Klucel (hydroxypropylcellulose) (HPC)): 90 % of control
- T/C (dose: 0.02 mg/kg/injection, schedule: Q01DX009 (ip), vehicle: Klucel (hydroxypropylcellulose) (HPC)): 106 % of control
- T/C (dose: 0.04 mg/kg/injection, schedule: Q01DX009 (ip), vehicle: Klucel (hydroxypropylcellulose) (HPC)): 108 % of control
- T/C (dose: 0.08 mg/kg/injection, schedule: Q01DX009 (ip), vehicle: Klucel (hydroxypropylcellulose) (HPC)): 120 % of control and 217 % of control
- T/C (dose: 0.3 mg/kg/injection, schedule: Q01DX009 (ip), vehicle: Klucel (hydroxypropylcellulose) (HPC)): 218 % of control

SMILES: Cc1cc(N=NC(N)=S)c2ccccc2c1O
- T/C (dose: 25.0 mg/kg/injection, schedule: Q04DX003 (ip), vehicle: Klucel (hydroxypropylcellulose) (HPC)): 100 % of control
- T/C (dose: 50.0 mg/kg/injection, schedule: Q04DX003 (ip), vehicle: Klucel (hydroxypropylcellulose) (HPC)): 97 % of control
- T/C [1]: 102 % of control
- T/C [2]: 100 % of control

SMILES: Cc1cc(N=Cc2cccs2)ccc1Br
- T/C [4]: 101 % of control and 98 % of control
- T/C [5]: 100 % of control and 101 % of control and 102 % of control
- T/C [6]: 102 % of control and 95 % of control
- T/C (dose: 400.0 mg/kg/injection, schedule: Q01DX009 (ip), vehicle: Klucel (hydroxypropylcellulose) (HPC)): 105 % of control

SMILES: CC(C)(C)OC(=O)N1CC(O)CC1C(=O)O (stereo not given)
- T/C (dose: 50.0 mg/kg/injection, schedule: Q01DX005 (ip), vehicle: saline): 91 % of control
- T/C (dose: 100.0 mg/kg/injection, schedule: Q01DX005 (ip), vehicle: saline): 91 % of control

SMILES: CCOc1cc2c(cc1C(C)c1ccc(OCc3ccccc3)cc1)OCO2 (stereo not given)
- T/C [7]: 88 % of control
- T/C [8]: 96 % of control
- T/C [9]: 91 % of control

SMILES: O=Nc1ccc(Cl)cc1C(=O)c1ccccc1
- T/C (dose: 50.0 mg/kg/injection, schedule: Q01DX009 (ip), vehicle: saline): 90 % of control
- T/C [10]: 104 % of control
- T/C [11]: 97 % of control

SMILES: COc1ccc(NC(=S)C#N)cc1
- T/C (dose: 15.0 mg/kg/injection, schedule: Q01DX005 (ip), vehicle: saline with Tween-80): 99 % of control
- T/C (dose: 30.0 mg/kg/injection, schedule: Q01DX005 (ip), vehicle: saline with Tween-80): 99 % of control
- T/C (dose: 60.0 mg/kg/injection, schedule: Q01DX005 (ip), vehicle: saline with Tween-80): 99 % of control and 117 % of control

SMILES: FC(F)(F)c1cccc(N(c2nc(Cl)nc(Cl)n2)c2nc(Cl)nc(Cl)n2)c1
- T/C (dose: 50.0 mg/kg/injection, schedule: Q01DX009 (ip), vehicle: suspension in saline): 94 % of control
- T/C (dose: 100.0 mg/kg/injection, schedule: Q01DX009 (ip), vehicle: suspension in saline): 92 % of control
- T/C (dose: 200.0 mg/kg/injection, schedule: Q01DX009 (ip), vehicle: suspension in saline): 91 % of control

SMILES: CCCC(=O)C(=O)c1ccc(O)c(C)c1O
- T/C [3]: 101 % of control
- T/C (dose: 100.0 mg/kg/injection, schedule: Q01DX009 (ip), vehicle: saline with Tween-80): 99 % of control
- T/C (dose: 200.0 mg/kg/injection, schedule: Q01DX009 (ip), vehicle: saline with Tween-80): 102 % of control

SMILES: CCCN(CCC)CCC(=O)OCC
- T/C (dose: 100.0 mg/kg/injection, schedule: Q04DX003 (ip), vehicle: saline with Tween-80): 118 % of control
- T/C (dose: 200.0 mg/kg/injection, schedule: Q04DX003 (ip), vehicle: saline with Tween-80): 100 % of control
- T/C (dose: 400.0 mg/kg/injection, schedule: Q04DX003 (ip), vehicle: saline with Tween-80): 100 % of control

SMILES: C=C(C)[C@@H]1CC[C@]2(C(=O)OC)CC[C@]3(C)[C@H](CC[C@@H]4[C@@]5(C)CC[C@H](O)C(C)(C)[C@@H]5CC[C@]43C)[C@@H]12
- T/C (dose: 25.0 mg/kg/injection, schedule: Q01DX009 (ip), vehicle: Klucel (hydroxypropylcellulose) (HPC)): 107 % of control
- T/C [4]: 102 % of control
- T/C [5]: 98 % of control
- T/C [6]: 102 % of control

SMILES: O=C(CCCN1CCC(C(=O)c2ccc(Cl)cc2)CC1)c1ccc(F)cc1
- T/C (dose: 3.0 mg/kg/injection, schedule: Q01DX009 (ip), vehicle: Klucel (hydroxypropylcellulose) (HPC)): 99 % of control
- T/C (dose: 6.0 mg/kg/injection, schedule: Q01DX009 (ip), vehicle: Klucel (hydroxypropylcellulose) (HPC)): 97 % of control
- T/C (dose: 12.0 mg/kg/injection, schedule: Q01DX009 (ip), vehicle: Klucel (hydroxypropylcellulose) (HPC)): 108 % of control

SMILES: COC(=O)c1cc(=O)c2c(ccc3oc(=O)ccc32)[nH]1
- T/C (dose: 50.0 mg/kg/injection, schedule: Q01DX005 (ip), vehicle: saline with Tween-80): 88 % of control
- T/C (dose: 100.0 mg/kg/injection, schedule: Q01DX005 (ip), vehicle: saline with Tween-80): 88 % of control
- T/C (dose: 200.0 mg/kg/injection, schedule: Q01DX005 (ip), vehicle: saline with Tween-80): 90 % of control

SMILES: O=[N+]([O-])c1ccc(N2CCN(c3ccccc3)CC2)c2c1no[n+]2[O-]
- T/C (dose: 37.5 mg/kg/injection, schedule: Q04DX003 (ip), vehicle: saline): 105 % of control
- T/C (dose: 37.5 mg/kg/injection, schedule: Q04DX003 (ip), vehicle: suspension in saline): 104 % of control
- T/C (dose: 75.0 mg/kg/injection, schedule: Q04DX003 (ip), vehicle: saline): 100 % of control
- T/C (dose: 75.0 mg/kg/injection, schedule: Q04DX003 (ip), vehicle: suspension in saline): 100 % of control
- T/C (dose: 150.0 mg/kg/injection, schedule: Q04DX003 (ip), vehicle: saline): 97 % of control
- T/C (dose: 150.0 mg/kg/injection, schedule: Q04DX003 (ip), vehicle: suspension in saline): 111 % of control
- T/C (dose: 300.0 mg/kg/injection, schedule: Q04DX003 (ip), vehicle: saline): 101 % of control
- T/C (dose: 300.0 mg/kg/injection, schedule: Q04DX003 (ip), vehicle: suspension in saline): 104 % of control

SMILES: O=S(=O)(O)SCCN1CCOCC1
- T/C [10]: 90 % of control
- T/C [11]: 115 % of control
- T/C (dose: 400.0 mg/kg/injection, schedule: Q01DX009 (ip), vehicle: saline): 110 % of control

SMILES: CC(C)(C)c1cc(C(O)(C(F)(F)F)C(F)(F)F)c2c(c1)C(C(F)(F)F)(C(F)(F)F)OS2(=O)=O
- T/C (dose: 25.0 mg/kg/injection, schedule: Q01DX005 (ip), vehicle: Klucel (hydroxypropylcellulose) (HPC)): 93 % of control
- T/C [7]: 103 % of control
- T/C [8]: 92 % of control
- T/C [9]: 91 % of control
